The values below come from article PMC12079444, “Antagonist Targeting the Species‐Specific Fatty Acid Dehydrogenase/Isomerase FabX for Anti‐H. pylori Infection” (Advanced Science, 2025).

The subject of test [1] is T1, Helicobacter pylori BHKS 210.
T1 construct: BHKS210 (NSH57/empty vector pTM117) wild-type NSH57 with empty vector
The test is described as follows: microbe, parasite or virus in culture. As to conditions: BHKS210, read-out: MIC. On the procedure: (§1) The sensitivity of H. pylori strains to various compounds was assessed by determining the MIC and evaluating the growth of the strains on the drug‐containing agar media. The MIC was measured using the broth microdilution assay as described previously.^[ [27] ^] Twofold serial dilutions of the test compounds were prepared using BHI broth supplemented with 10% FCS in 96‐well microtiter plates. Diluted H. pylori cultures, adjusted to a final concentration of 5 × 10^5 CFU mL^−1, were then added to each well. The cultures were incubated for 48–72 h in a microaerobic environment at 37 °C. The MIC was determined by visual inspection. H. pylori strains used in this study were cultured on brain heart infusion (BHI) broth (Oxoid, UK) or Columbia blood agar medium (Oxoid, UK) supplemented with 10% fetal calf serum (FCS). The cultures were incubated at 37 °C for 48–72 h under microaerobic environments in a double‐gas CO2 incubator (Binder, Germany). The wild‐type strains G27 and NSH57 used in this study were kindly provided by Prof. Nina R. Salama from the Fred Hutchinson Cancer Research Center (USA). Three clinical H. pylori strains (BYES129, BY924, and JIGC0009) were isolated from biopsy samples from three patients with gastritis or gastric cancer using standard protocols. Strains BHKS551 (NSH57 IR0203::fabA ΔfabX) and BHKS568 (NSH57 IR0203::fabX ΔfabX) were described previously.^[ [19] ^] The following 15 reference strains of different species were also used: Escherichia coli ATCC 25922, Klebsiella pneumoniae ATCC 35657, Pseudomonas aeruginosa PAO1, Salmonella enterica serovar Typhimurium ATCC 14028, Shigella dysenteriae Sd197, Acinetobacter baumannii ATCC 19606, Proteus mirabilis ATCC 29906, Enterobacter cloacae ATCC 13047, Stenotrophomonas maltophilia ATCC 51331, Bacillus subtilis 168, Enterococcus faecium ATCC 19434, Staphylococcus aureus ATCC 25923, Staphylococcus haemolyticus ATCC 29970, Listeria monocytogenes EGDe, and Morganella morganii ATCC 25830. These non‐Helicobacter bacterial strains were cultured as described previously.^[ [25] ^] We evaluated the antibacterial activities of selected compounds (IC 50 < 1 × 10^−6 M) against several H. pylori strains (Table S3∖, Supporting Information), particularly against strains BHKS551 and BHKS211 (the FabX overexpressed strain, hereinafter referred to as FabX^OE) to validate the on‐target effect in vivo. Note that FabX is overproduced 3.32‐fold in strain BHKS211 compared to the control strain BHKS210 carrying the empty vector (Figure S3, Supporting Information). […] This could be due to the fact that the carboxyl group of 8j readily deprotonates and acquires negative charge at physiological pH, which reduces its lipophilicity and prevents it from permeating the bacterial cell membrane. To address this issue, we employed a prodrug strategy and synthesized esters from 8j by attaching it to lipophilic alcohols (8p‐8u) or a lipophilic cation 6‐hydroxyhexyltriphenylphosphonium bromide (8v) (Figure 3). […] Compounds 8p‐8s were synthesized as shown in Scheme 1, while compounds 8t‐8v were synthesized as described in Scheme 3 . 8q was hydrolyzed with NaOH to yield 8j, which was subsequently reacted with various alcohols by Steglich esterification to produce compounds 8t‐8v.

For test [2], the system named is T2, Helicobacter pylori BHKS 568.
T2 construct: BHKS568 (NSH57 IR0203::fabX ΔfabX) native fabX relocated to IR0203
Briefly: microbe, parasite or virus in culture. As to conditions: BHKS568, read-out: MIC. How it is done:
as §1

The next test concerns T3, Helicobacter pylori G27.
T3 construct: G27
Briefly: microbe, parasite or virus in culture. As to conditions: G27, read-out: MIC. On the procedure: as §1

Test [3] concerns T4, Helicobacter pylori Hp129.
T4 construct: Hp129
Briefly: microbe, parasite or virus in culture. The following applies: HP129, read-out: MIC. On the procedure: as §1

Test [4] concerns the target T5, FabX (Helicobacter pylori, UniProt O25465).
T5 construct: gene HP_0773; recombinant from pQE2 vector in E. coli BL21(DE3) Rosetta, Ni-NTA, HiTrap-SP, Superdex75; FMN and [4Fe-4S] cofactors
T5 sequence (O25465 1-363): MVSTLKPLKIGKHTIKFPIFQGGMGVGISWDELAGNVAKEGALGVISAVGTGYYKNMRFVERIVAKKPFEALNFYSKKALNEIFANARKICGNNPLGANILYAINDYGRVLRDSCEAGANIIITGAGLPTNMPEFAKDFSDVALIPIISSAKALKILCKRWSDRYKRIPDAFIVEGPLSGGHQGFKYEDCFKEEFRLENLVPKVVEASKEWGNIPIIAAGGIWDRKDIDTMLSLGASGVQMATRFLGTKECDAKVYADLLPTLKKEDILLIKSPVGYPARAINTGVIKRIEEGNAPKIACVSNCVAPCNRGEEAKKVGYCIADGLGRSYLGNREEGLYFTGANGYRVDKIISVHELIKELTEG
The test is described as follows: FabX-FabI coupled assay, NADH absorbance […] nm. The format is biochemical.

Test [5] deals with T5, FabX. Briefly: biochemical. Set-up: FabX inhibition in multienzymatic cascade coupled to FabI, NADH consumption read-out. The following applies: read-out: % inhibition. The source says: To discover small molecule inhibitors targeting FabX, we performed protein thermal shift assay (PTSA) based high‐throughput screening against an in‐house chemical library of 11000 small molecule compounds, and established a multienzymatic cascade reaction system by incorporating the enoyl acyl carrier protein reductase FabI from H. pylori into the hit validation system, where FabI catalyzes the reduction of FabX catalytic product enoyl‐ACP in the fourth step of the elongation cycle, accompanying the elimination of NADH (Figure 2A,B). […] The subcloning, expression, and purification of FabX, FabI, and ACP from H. pylori, FabK from S. pneumoniae, and FabA from E. coli were described previously.^[ [19] ^] Briefly, fabX, fabI, fabK, and fabA genes were subcloned to pQE2 vector, while the Acp gene was subcloned to pET32a vector, respectively. The proteins were expressed in BL21(DE3) Rosetta cells, purified by using Ni‐NTA affinity column, HiTrap‐SP column, GE HiLoad 16/600 Superdex75 prep grade gel‐filtration column. The peaks from the gel‐filtration column were further pooled, concentrated, and the final concentration of the proteins was quantified by the Bradford reagent purchased from Bio‐Rad.

The target in test [6] is T5, FabX. Briefly: FabX-FabI coupled assay, NADH absorbance […] nm. The format is biochemical. As to conditions: read-out: FabX enzymatic activity / 10 × 10^-6 M [%].
Test [7] has as its target T5, FabX. Briefly: isothermal titration calorimetry. The class given is binding. On the technique in general: In ITC the heat of successive injections is recorded.
The target in test [8] is T5, FabX. Briefly: X-ray crystal structure, […] Å. The class given is binding. As to conditions: bound cofactor in the complex with FBX-1991.

Values after ≈ are worked out from the molar mass of the structure shown.

A word on the IC50: it is the concentration at which inhibition is half-maximal. A lower IC50 goes with greater potency in that assay. With `COC(=O)c1cccc(NS(=O)(=O)c2cccnc2Nc2ccc(Cl)cc2Cl)c1` [8p, FBX-1991], the MIC (in [1]; in [2]; with Helicobacter pylori G27; in [3]) was 16 mg/L (≈ 35.4 µM) throughout. This compound returned an IC50 on FabX [4] of 0.158 ± 0.03 µM. Also, at FabX [5], the inhibition at 1 µM came out at 83%. Moreover, the inhibition at 10 µM on FabX [5] stood at 98%.

As for `CC(C)(C)OC(=O)c1cccc(NS(=O)(=O)c2cccnc2Nc2ccc(Cl)cc2Cl)c1` [8s], the MIC in test [1] was 32 mg/L (≈ 64.7 µM); in test [2], 32 mg/L (≈ 64.7 µM); in the test with Helicobacter pylori G27 it was 64 mg/L (≈ 129 µM); in test [3], 32 mg/L (≈ 64.7 µM). Besides, the inhibition at 10 µM on FabX [6] came to 10%.

As a reminder, the Kd is a measure of binding affinity in units of concentration. A low value points to tighter binding. As to `O=C(O)c1cccc(NS(=O)(=O)c2cccnc2Nc2ccc(Cl)cc2Cl)c1` [8j, FBX-1872], the MIC was > 128 mg/L in test [1], > 64 mg/L in test [2], > 64 mg/L in the test with Helicobacter pylori G27 and > 64 mg/L in [3]. For the same compound, the IC50 at FabX [4] is 0.437 ± 0.042 µM. Binding at FabX [7] was characterised by a dissociation constant (Kd) of 0.435 ± 0.046 µM. Besides, the inhibition at 1 µM on FabX [5] was 65%. For the same compound, at FabX [5], the inhibition at 10 µM was determined as 100%.

As for `CC(C)OC(=O)c1cccc(NS(=O)(=O)c2cccnc2Nc2ccc(Cl)cc2Cl)c1` [8r], the MIC in test [1] came out at 32 mg/L (≈ 66.6 µM); in test [2] it was 32 mg/L (≈ 66.6 µM); with Helicobacter pylori G27 it was 64 mg/L (≈ 133 µM); in test [3], 32 mg/L (≈ 66.6 µM). In addition, the inhibition at 10 µM on FabX [6] came to 37%.

On to `O=C(OCCCCCC[P+](c1ccccc1)(c1ccccc1)c1ccccc1)c1cccc(NS(=O)(=O)c2cccnc2Nc2ccc(Cl)cc2Cl)c1` [8v], for which the values for the MIC (in [1]; in [2]; in the test on Helicobacter pylori G27) were 16 mg/L, 16 mg/L and 32 mg/L, respectively. In addition, the inhibition at 10 µM on FabX [6] amounted to 42%.

For `Cc1cc2nc3c(=O)[nH]c(=O)nc-3n(C[C@H](O)[C@H](O)[C@H](O)COP(=O)(O)O)c2cc1C` [FMN], the “X-ray crystal structure, 2.00 Å” value on FabX [8] is “binds in the region between the FMN cofactor and the catalytic tunnel of FabX”.

With `CCOC(=O)c1cccc(NS(=O)(=O)c2cccnc2Nc2ccc(Cl)cc2Cl)c1` [8q], the MIC came out at 32 mg/L (≈ 68.6 µM) in test [1], 16 mg/L (≈ 34.3 µM) in test [2], 16 mg/L (≈ 34.3 µM) with Helicobacter pylori G27 and 16 mg/L (≈ 34.3 µM) in [3]. For the same compound, the IC50 at FabX [4] turned out to be 0.552 ± 0.118 µM. Moreover, the inhibition at 1 µM on FabX [5] was 60%. For the same compound, the inhibition at 10 µM at FabX [5] was determined as 100%.
